According to patent US20090305954A1, “HISTIDINE-CONTAINING DIASTEREOMERIC PEPTIDES AND USES THEREOF” (Yeda Research and Development Co. Ltd., priority 2005, published 2009):
Square brackets hold non-standard residues; d marks the D form. Peptide text beside a SMILES is read from it.

What was measured:
[1] = test system: 22RV1 human PC cells xenograft; experiment: Inhibition of tumor growth in human prostate cancer xenografts, 22RV1; type: in vivo, nude male mice; conditions: 22RV1 xenograft
Description: (i) Inhibition of tumor growth in human prostate cancer xenografts. Subcutaneouse (s.c.) implantation of human PC cells in mice was done as previously described in Gavish et al. (Gavish et al. 2002). Briefly, 0.1 ml AI CL1 or 22RV1 human PC cells (5×10^6 cells) in Matrigel were inoculated s.c. into the dorsal side of five to six week-old nude male mice weighing 20-25 g (Harlen Co., Israel). Two weeks after cell implantation, when the tumors diameter reached ≧5 mm (denoted as day 1), the diastereomer 13 and its all L-amino acid analog peptide (at 1 mg/kg, 0.1 mM), or vehicle (PBS, pH=7.4) were injected intratumorally (dosing volume of 2.5 ml/kg) three times a week for a total of 9 doses. Tumor size was measured by a caliper and recorded twice a week during a period of 28 days. Mice were weighed and tumor weight (mg) was estimated by using the formula of length×width×depth×0.52 in mm^3, assuming the specific gravity to be 1. At the end of the treatment, the mice were killed, and the tumors were removed, photographed, and weighed. The animal experimentation was conducted according to the rules of the Institutional Animal Care and Use Committee.
Serum PSA levels. Four weeks after the first treatment, blood was withdrawn from the 22RV1-inoculated mice in order to determine the level of prostate specific antigen (PSA). The blood samples were taken directly to heparin containing tubes, centrifuged, and the supernatants were stored at −20° C. The CanAg PSA EIA kit (CanAg Diagnostics) was used to determine the total PSA in the mice plasma (Gavish et al., 2002). Tumor weight and PSA levels, represented as the mean±SE, were calculated from the raw data and then subjected to Student's t test. A value of P<0.05 was considered as statistically significant.

[2] = test system: pepsin, trypsin, and elastase; experiment: Resistance to proteolytic digestion (reverse-phase HPLC); type: in vitro ADME; conditions: after 2 hr, 140 μM peptide, 25 μM protease, 37° C.
Description: In order to reach their target, the diastereomers have to withstand proteolytic digestion of proteases, which may occur after their administration and during the time until they reach the target site. The susceptibility of the peptides 13 and 14 to proteolytic digestion by pepsin (from porcine stomach mucosa, Sigma), trypsin (from bovine pancreas, Sigma), and elastase (from human leukocytes, Sigma) was assessed by reverse-phase HPLC. As a negative control, the all L-amino acid analog peptides were used. Equal amounts of the peptides were dissolved in PBS (35 mM phosphate buffer/0.15 M NaCl, pH 7.3) at a final concentration of 140 μM, to which 25 μM of protease were added. […] After the addition of the appropriate protease inhibitor to stop the reaction, aliquots were injected to C18 column and the amounts of the intact peptides 13 and 14 and their all L analogs were evaluated using their absorbance at 215 nm.

Q: What does the source list for CC(C)C[C@H](NC(=O)[C@H](CC(C)C)NC(=O)[C@@H](CCCCN)NC(=O)[C@H](CC(C)C)NC(=O)[C@H](CC(C)C)NC(=O)[C@H](Cc1c[nH]cn1)NC(=O)[C@@H](CCCCN)NC(=O)[C@@H](CC(C)C)NC(=O)[C@H](CC(C)C)NC(=O)[C@@H](CCCCN)NC(=O)[C@H](Cc1c[nH]cn1)NC(=O)[C@H](CC(C)C)NC(=O)[C@@H](CC(C)C)NC(=O)[C@H](CCCCN)NC(=O)[C@@H](N)CC(C)C)C(N)=O [Peptide 13] (H-LK[dL]LH[dK]L[dL][dK]HLL[dK]LL-NH2)?
A: tumor weight ([1]; 1 mg/kg intratumorally, 9 doses): significant reduction; PSA serum levels ([1]; four weeks after first treatment): marked decrease; proteases digestion [2]: ~50%
